The values that follow come from ChEMBL document CHEMBL2407077, “Cycloforskamide, a cytotoxic macrocyclic peptide from the sea slug Pleurobranchus forskalii” (J Nat Prod, 2013).

pIC50: −log10 of the molar value. Numbered stars: 1 amine (or outer) side, 2 acyl side, 3 side chain; on linkers, the order of the positions; unused ones are H or OH. Square brackets hold non-standard residues; d marks the D form. Peptide text beside a SMILES is read from it. X2 = CC[C@H](C)[C@@H](N[*:1])C1=N[C@H](C(=O)[*:2])CS1; X1 = O=C([C@@H]1CSC([C@H]2CCCN2[*:1])=N1)[*:2]

This experiment relates to P388. Description: Cytotoxicity against mouse P388 cells after 3 days by MTT assay. Type of experiment: functional, cell-based. The conditions noted are these: P388, 72 h. On the technique in general: Formazan colour is commonly taken as a measure of viable cells.

In the case of `CC[C@H](C)[C@@H]1NC(=O)[C@@H]2CSC(=N2)[C@H]2CCCN2C(=O)[C@H]([C@@H](C)O)NC(=O)[C@H](C(C)C)NC(=O)[C@H](C(C)C)NC(=O)[C@H]([C@@H](C)O)NC(=O)[C@@H]2CSC(=N2)[C@@H]([C@@H](C)CC)NC(=O)[C@H](C(C)C)NC(=O)[C@@H]2CSC(=N2)[C@H]2CCCN2C1=O` [CYCLOFORSKAMIDE] (cyclo(I[X1]V[X2]TVVT[X1])), the pIC50 (usually the negative decadic logarithm of the IC50, by convention in mol/L) was 5.24.
The compound `COc1cccc2c1C(=O)c1c(O)c3c(c(O)c1C2=O)C[C@@](O)(C(=O)CO)C[C@@H]3O[C@H]1C[C@H](N)[C@H](O)[C@H](C)O1` [DOXORUBICIN] gave a negative logarithm of the IC50 (pIC50) of 6.68.
